We go through 18 molecules from ChEMBL document CHEMBL4152292, “Rational design of carbamate-based dual binding site and central AChE inhibitors by a "biooxidisable" prodrug approach: Synthesis, in vitro evaluation and docking studies” (Eur J Med Chem, 2018).

SMILES strings stand for the structures.

Series [1] deals with T1, Acetylcholinesterase (Homo sapiens, UniProt P22303). In words: Inhibition of human erythrocytes AChE using acetylthiocholine iodide as substrate preincubated for 5 mins followed by substrate addition measured every min for 10 mins by Ellman's method.
Series [2] deals with T1, Acetylcholinesterase. The series can be described thus: Inhibition of human erythrocytes AChE at 10^-5 M using acetylthiocholine iodide as substrate preincubated for 5 mins followed by substrate addition measured every min for 10 mins by Ellman's method. In general terms: In Ellman's method for cholinesterases, released thiocholine reacts with DTNB.
Series [3] can be described thus: Apparent permeability from apical to basolateral side in human Caco2 cells at 10 uM at pH 7.4 measured after 60 mins by HPLC-MS/MS method. The following applies: Caco-2, pH 7.4. The class given is ADME, cell-based. (Caco-2 monolayers are a common model of the intestinal barrier.)
Series [4] can be described thus: Apparent permeability from apical to basolateral side in human Caco2 cells assessed as drug recovery at 10 uM at pH 7.4 measured after 60 mins by HPLC-MS/MS method. The series is classed as ADME, cell-based. The note with it: Caco-2, pH 7.4, read-out: Drug recovery.
Series [5] concerns the target Amyloid-beta precursor protein (Homo sapiens) (UniProt P05067). In words: Inhibition of self-induced aggregation of amyloid beta (1 to 42 residues) (unknown origin) at 10 uM measured every 5 mins by Thioflavin T dye based fluorescence assay relative to control.
Series [6] concerns the target T1, Acetylcholinesterase. In words: Displacement of propidium iodide from PAS of human AChE after 6 hrs by fluorescence assay.
Series [7] deals with T2, Acetylcholinesterase (Bos taurus, UniProt P23795).
T2 sequence (P23795 whole entry): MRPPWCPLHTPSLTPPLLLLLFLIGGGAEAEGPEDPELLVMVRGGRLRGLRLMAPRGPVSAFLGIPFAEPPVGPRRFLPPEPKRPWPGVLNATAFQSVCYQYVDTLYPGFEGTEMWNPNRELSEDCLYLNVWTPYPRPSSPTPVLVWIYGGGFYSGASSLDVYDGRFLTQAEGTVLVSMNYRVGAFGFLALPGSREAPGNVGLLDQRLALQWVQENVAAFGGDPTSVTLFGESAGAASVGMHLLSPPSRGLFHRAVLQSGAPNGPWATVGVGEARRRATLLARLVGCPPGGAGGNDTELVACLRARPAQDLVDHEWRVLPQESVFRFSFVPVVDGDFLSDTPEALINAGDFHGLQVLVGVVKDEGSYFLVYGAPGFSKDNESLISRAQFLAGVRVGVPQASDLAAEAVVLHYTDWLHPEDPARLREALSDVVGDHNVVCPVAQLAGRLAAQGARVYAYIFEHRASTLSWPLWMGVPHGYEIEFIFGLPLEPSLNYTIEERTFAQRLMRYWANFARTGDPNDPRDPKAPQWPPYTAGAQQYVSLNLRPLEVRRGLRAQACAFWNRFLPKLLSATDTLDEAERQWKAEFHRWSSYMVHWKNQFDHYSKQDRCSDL
The series can be described thus: Inhibition of bovine erythrocytes AChE using acetylthiocholine iodide as substrate by Ellman's method.

T1 sequence (P22303 whole entry): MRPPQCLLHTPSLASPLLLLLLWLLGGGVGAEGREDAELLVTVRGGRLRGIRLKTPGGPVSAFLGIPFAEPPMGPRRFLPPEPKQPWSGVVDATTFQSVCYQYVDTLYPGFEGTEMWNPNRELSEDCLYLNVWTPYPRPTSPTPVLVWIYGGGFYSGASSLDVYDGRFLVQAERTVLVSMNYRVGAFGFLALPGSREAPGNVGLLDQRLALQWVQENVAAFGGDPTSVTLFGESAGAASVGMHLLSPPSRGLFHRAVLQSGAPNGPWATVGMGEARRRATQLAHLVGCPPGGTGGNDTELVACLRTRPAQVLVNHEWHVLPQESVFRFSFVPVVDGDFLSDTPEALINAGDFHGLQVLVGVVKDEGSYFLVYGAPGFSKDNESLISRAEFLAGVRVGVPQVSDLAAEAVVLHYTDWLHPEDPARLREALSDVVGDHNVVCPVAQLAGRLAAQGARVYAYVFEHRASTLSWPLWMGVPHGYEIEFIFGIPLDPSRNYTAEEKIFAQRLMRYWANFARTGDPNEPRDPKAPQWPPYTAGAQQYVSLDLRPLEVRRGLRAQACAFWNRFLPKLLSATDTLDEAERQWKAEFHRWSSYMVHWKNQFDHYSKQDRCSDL
Amyloid-beta precursor protein (Homo sapiens), sequence (P05067 whole entry, the tested form may be a part): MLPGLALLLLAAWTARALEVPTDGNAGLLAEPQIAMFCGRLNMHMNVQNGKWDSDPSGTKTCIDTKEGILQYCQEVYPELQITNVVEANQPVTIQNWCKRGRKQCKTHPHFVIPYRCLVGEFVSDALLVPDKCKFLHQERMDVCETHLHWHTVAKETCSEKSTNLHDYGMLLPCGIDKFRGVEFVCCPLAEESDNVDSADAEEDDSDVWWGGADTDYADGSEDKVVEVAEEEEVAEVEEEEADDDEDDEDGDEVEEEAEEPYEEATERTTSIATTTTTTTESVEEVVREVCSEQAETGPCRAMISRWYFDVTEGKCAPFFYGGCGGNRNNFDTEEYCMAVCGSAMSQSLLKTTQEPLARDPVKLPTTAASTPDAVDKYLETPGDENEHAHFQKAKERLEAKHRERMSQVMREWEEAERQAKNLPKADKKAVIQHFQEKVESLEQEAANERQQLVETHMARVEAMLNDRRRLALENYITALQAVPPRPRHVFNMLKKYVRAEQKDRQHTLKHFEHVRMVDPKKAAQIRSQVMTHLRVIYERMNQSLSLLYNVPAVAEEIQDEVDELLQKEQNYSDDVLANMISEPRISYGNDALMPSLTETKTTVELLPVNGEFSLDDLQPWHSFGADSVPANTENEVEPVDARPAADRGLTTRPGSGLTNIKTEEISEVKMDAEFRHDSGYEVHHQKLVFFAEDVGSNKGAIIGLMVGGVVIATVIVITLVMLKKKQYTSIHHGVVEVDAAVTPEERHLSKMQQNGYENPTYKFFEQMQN

For `Cc1c(C(=O)N(C)C)c(C)[n+](C)c2cccc(OC(=O)N(C)C)c12`, the half-maximal inhibitory concentration (IC50) in series [1] is > 10000 nM.

The molecule `CN(C)C(=O)Oc1cccc2c1cc(C(=O)N(C)C)c[n+]2C` had an IC50 in series [1] of 154 nM.

In series [1], `CNC(=O)c1cc2c(OC(=O)N(C)C)cccc2[n+](Cc2ccccc2)c1` displayed an IC50 of 1160 nM.

Consider `CCN(C)C(=O)Oc1cccc2c1cc(C(=O)NC(C)C)c[n+]2C`, for which the half-maximal inhibitory concentration (IC50) in series [1] is > 10000 nM.

In series [1], `CN(C)C(=O)Oc1cccc2c1cc(C(=O)NC1CCCCC1)c[n+]2C` registered an IC50 of 20 nM.

Consider `COC(=O)CNC(=O)c1cc2c(OC(=O)N(C)C)cccc2[n+](C)c1`, for which the 50% inhibitory concentration (IC50) in series [1] came out at 93 nM.

On to `CC(C)NC(=O)c1cc2c(OC(=O)N3CCCC3)cccc2[n+](C)c1`, for which the IC50 in series [1] is > 10000 nM.

In series [2], `C[n+]1cc(C(=O)NCCOCCOCCN2C(=O)c3ccccc3C2=O)cc2c(O)cccc21` registered an inhibition of 35%. Also, in series [1], the IC50 was > 10000 nM.

For `CC[n+]1cc(C(=O)NC)cc2c(OC(=O)N(C)C)cccc21`, in series [1], half-maximal inhibition (IC50) required 314 nM.

`CN(C)C(=O)Oc1cccc2c1CC(C(=O)NCCOCCOCCN1C(=O)c3ccccc3C1=O)=CN2C`: the apical-to-basolateral permeability (Papp A→B) at 1 h, 10 µM in series [3] came to 11.1 ×10⁻⁶ cm/s. For the same molecule, the recovery at 1 h, 10 µM in series [4] came out at 91%. For the same molecule, the IC50 in series [1] was > 10000 nM.

The molecule `COCCNC(=O)c1cc2c(OC(=O)N(C)C)cccc2[n+](C)c1` displayed a concentration for half-maximal inhibition (IC50) in series [1] of 20 nM.

For `Cc1c(C(=O)N(C)C)c[n+](C)c2cccc(OC(=O)N(C)C)c12`, the IC50 in series [1] was > 10000 nM.

With `CNC(=O)c1cc2c(OC(=O)N(C)C)cccc2[n+](C)c1`, the half-inhibitory concentration (IC50) in series [1] turned out to be 77 nM.

In series [5], `CN(C)C(=O)Oc1cccc2c1cc(C(=O)NCCOCCOCCN1C(=O)c3ccccc3C1=O)c[n+]2C` registered an inhibition of 14%. Besides, the Activity in series [6] was 20%. Moreover, the 50% inhibitory concentration (IC50) in series [7] and in series [1] was 6 nM throughout.

On to `Cc1c(C(=O)N(C)C)cc2c(OC(=O)N(C)C)cccc2[n+]1C`, for which the half-maximal inhibitory concentration (IC50) in series [1] is > 10000 nM.

On to `CN(C)C(=O)Oc1cccc2c1cc(C(=O)Nc1ccccc1)c[n+]2C`, for which the IC50 in series [1] was 30 nM.

As for `CN(C)C(=O)Oc1cccc2c1cc(C(=O)NCCOCCO)c[n+]2C`, half-maximal inhibition in series [1] (IC50) required 37 nM.

In series [1], `CC(C)NC(=O)c1cc2c(OC(=O)N(C)C)cccc2[n+](C)c1` came in with a 50% inhibitory concentration (IC50) of 58 nM.

In general, IC50 refers to the concentration needed to halve the response being measured. The low end stands for greater potency, the high end for weaker potency. Usually inhibition stands for the drop in the measured response relative to a control, in per cent. A word on the Papp A→B: it is how fast a substance crosses the layer from the apical side.
